Measurements from PMC5882139, “Functional examination of novel kisspeptin phosphinic peptides” (PLoS ONE, 2018).
Ends that are not written are not given here.

What was measured:
MMP-2 = MMP-2 activity, MMP colorimetric drug discovery kit; format: biochemical; conditions: 1.3 μM, 37°C 1 hour, 412 nm; three independent experiments
Method: (§1) The activity of MMPs was measured using MMP colorimetric drug discovery kits in a 96-well microtiter plate according to the manufacturer’s instructions. Different concentrations of the phosphinic peptides or 1.3 μM N-Isobutyl-N-(4-methoxyphenylsulfonyl)glycyl hydroxamic acid (NNGH), a positive inhibitor for MMPs, were, respectively, added to the assay mixtures containing MMP enzyme (MMP-2 or MMP-9; 9 mU/μL). The plates were then incubated at 37°C for 1 hour for enzyme reaction. After that, a final concentration of 100 μM colorimetric substrate (Ac-PLG-[2-mercapto-4-methyl-pentanoyl]-LGOC2H5) was added to each well and the plates were then read at 412 nm every minute for at least 20 minutes using PHERAStar FS microplate reader. The full enzyme activity (control) was measured without addition of any inhibitor or tested peptides. The reaction velocity (V) was determined by calculating the slope of the fitted line to the linear portion of the data collected. The slope of blank (without addition of MMP enzyme) was subtracted from all samples and the remaining activity of the enzyme was calculated using following formula.
(§2) %Enzymeactivity=V(inhibitor)/V(control)*100
(§3) Fig 7 Effect of KP phosphinic peptides on MMP-2 (A) or MMP-9 (B) enzyme activity. […] The maximum activity (control) was measured in the absence of inhibitors. […]

MMP-9 = MMP-9 activity, MMP colorimetric drug discovery kit; format: biochemical; conditions: 1.3 μM, 37°C 1 hour, 412 nm; three independent experiments
Method: as §1, §2, §3

cancer cell metastasis = conditions: ref [17]; cited from earlier work
Source text: KPs inhibit metastasis in a variety of cancers, including melanoma, breast, endometrial, gastric ovarian cancers, and others. Therefore, KP analogues may act as inhibitors of cancer metastasis which is the major cause of cancer death.

Row | Molecule | inhibition of MMP-2 activity by positive control (MMP-2) | inhibition of MMP-9 activity by positive control (MMP-9) | inhibition of cancer cell metastasis (cancer cell metastasis)
1 | COc1ccc(S(=O)(=O)N(CC(=O)NO)CC(C)C)cc1 [NNGH, N-Isobutyl-N-(4-methoxyphenylsulfonyl)glycyl hydroxamic acid] | almost completely inhibited | almost completely inhibited | 
2 | KP-54: endogenous 54-amino acid peptide ligand of kisspeptin receptor (GTSLSPPPESSGSPQQPGLSAPHSRQIPAPQGAVLVQREKDLPNYNWNSFGLRF; ends and bridges not checked; UniProt Q15726 68-121, looked up) |  |  | inhibit cancer cell metastasis
